Laboratory results as given in patent publication US10577610B2, “EpCAM aptamers and conjugates thereof” (Deakin University, priority 2015, dated 2020).
Where “and” joins values, the source holds several entries; their conditions need not be identical. Equal values may be shown once. [invdT] = inverted (3'-3') thymidine; {TYE665} = TYE665 fluorescent dye

How the values were obtained:
[1] = target: T1, mouse TfR (Mus musculus, UniProt Q62351); experiment: Flow cytometry binding assay on bEnd.3 cells (TfR-positive); settings: bEnd.3 (TfR-positive) cells, n=3
T1 construct: bEnd.3 cells, mouse cells positive for TfR; host or cells: bEnd.3 mouse cerebral endothelial cells
Description: In order to determine the binding affinity (equilibrium dissociation constant KD) of the aptamers. Binding assays were conducted to measure the binding to native EpCAM protein expressed on the cell surface. The aptamers were incubated with the cells at concentrations ranging from 0 nM to 400 nM. These were subsequently analysed by flow cytometry. Aptamers were thawed from storage (-20° C.) prior to use. These were then diluted via serial dilutions with phosphate buffered saline (PBS) in order to achieve the desired concentrations. PBS was supplemented with a MgCl2 concentration appropriate for the aptamer (1 mM for anti-TfR aptamers; 5 mM for conjugate aptamers). […] Concurrently, subcultured cells were incubated in blocking buffer (PBS with 10% FCS, 1 mg/mL BSA, 0.1 mg/mL tRNA) for 30 minutes. Following centrifugation, blocking buffer was removed and cells were resuspended in binding buffer (PBS with 10% FCS, 1 mg/mL BSA, 0.1 mg/mL tRNA). Cells (50 μL) were then incubated with the aptamers (50 μL) for 30 minutes at 37° C. at a range of concentrations (0 nM, 20 nM, 40 nM, 60 nM, 80 nM, 100 nM, 200 nM, 400 nM). Following this, cells were washed in 100 μL PBS three times before final resuspension for flow cytometry. Aptamers were incubated with the chosen cell lines (bEnd.3 cells, mouse cells positive for TfR; HEY cells, human ovarian cancer cell line positive for EpCAM; and MOLT4 human cells negative for both TfR and EpCAM) at a range of concentrations. Aptamer-bound cells were analysed using a FACS Canto II flow cytometer (Becton Dickinson), counting 10,000 events for each sample, in order to determine the binding affinity of the aptamers. […] The value for the auto fluorescent 0 nM concentration was subtracted from the other figures to account for background fluorescence (Li N et al (2009) Journal of Proteome Research 8(5):2438-48). […] The binding affinities of aptamers TfR1, TfR2, […] determined semi-quantitatively via flow cytometry, using bEnd.3 mouse cerebral endothelial cells as a Tf R-positive cell line and MOLT4 acute lymphoblastic leukaemia cells-which express the human TfR, but not the mouse TfR (Sutherland R et al (1981) PNAS 78(7):4515-9)-as a negative control. Three independent binding assays were performed for each aptamer against each cell line. […] Three independent binding assays were performed for these aptamer against all three cell lines (bEnd.3, HEY and MOLT4).

[2] = test system: bEnd.3 cells; experiment: Confocal microscopy internalisation into bEnd.3 cells; assay type: cell-based, mouse; settings: for Internalisation into TfR-expressing bEnd.3 cells: conjugate aptamers, 400 nM, two hour, confocal microscopy
Description: Confocal microscopy was used as a means of visualising aptamer internalisation into the cells. Both aptamers and cells were prepared in the same manner as described above before they were mixed and allowed to incubate at 37° C. The aptamers were used at a concentration of 200 nM and were allowed to incubate for 60 minutes. The concentration for the conjugate (bifunctional) aptamers was 400 nM and these were incubated with the cells for 120 minutes. Ten minutes prior to end of incubation, 2 μL of Hoechst nuclear stain (10 mg/mL) was added to cells. Cells were then washed three times with 100 μL of PBS as described above and resuspended in 20 μL (8×10^5 cells/well) in an 8-chambered slide (Lab-Tek II, Nunc) for visualisation. Cells were incubated in blocking buffer for 60 mins followed by resuspension in binding buffer containing the aptamer and incubated for 60 mins at 37° C. […] The aptamer solution was removed and the cells were washed three times for 5 min each in PBS prior to visualisation using a FluoView FV10i laser scanning confocal microscope (Olympus). In order to assess the mechanism of cellular uptake, the internalisation of a phycoethyrin-labelled rat anti-mouse TfR monoclonal antibody (R17217; Abcam) was also visualised by confocal microscopy by co-incubating it with the aptamer at 1 μg/mL for 30 minutes. The uptake of these aptamers into cells is an important factor in determining the potential for use as therapeutics. The anti-transferrin receptor aptamers generated herein are designed to pass through the BBB via the active transcytosis pathway. […] This was done by visualising the internalisation of aptamers at a concentration of 200 nM into bEnd.3 and MOLT4 cells over the course of a one hour incubation with confocal microscopy. Aptamers are relatively new molecular tools in the field of diagnostics and therapeutics. […] The performance of the aptamer with a corresponding antibody was compared by examining uptake in bEnd.3 cells. This was done by incubating the highest affinity aptamer, TfR3, and the anti-TfR antibody with the bEnd.3 cells and observing them via confocal microscopy. The anti-TfR aptamers generated herein are intended to be used as drug delivery agents capable of crossing the blood-brain barrier (BBB). In an in vivo or clinical setting, these would need to pass from the bloodstream and into the BBB endothelial monolayer before exiting on the other side into the brain parenchyma. Given this, it is vital that these are not only capable of entered cells via active transport processes, but can also exocytose out again. Therefore, a time course internalisation experiment was conducted in order to establish whether or not the aptamers are being retained in the cells or are returning to the extracellular fluid. […]

T1 sequence (Q62351 whole entry): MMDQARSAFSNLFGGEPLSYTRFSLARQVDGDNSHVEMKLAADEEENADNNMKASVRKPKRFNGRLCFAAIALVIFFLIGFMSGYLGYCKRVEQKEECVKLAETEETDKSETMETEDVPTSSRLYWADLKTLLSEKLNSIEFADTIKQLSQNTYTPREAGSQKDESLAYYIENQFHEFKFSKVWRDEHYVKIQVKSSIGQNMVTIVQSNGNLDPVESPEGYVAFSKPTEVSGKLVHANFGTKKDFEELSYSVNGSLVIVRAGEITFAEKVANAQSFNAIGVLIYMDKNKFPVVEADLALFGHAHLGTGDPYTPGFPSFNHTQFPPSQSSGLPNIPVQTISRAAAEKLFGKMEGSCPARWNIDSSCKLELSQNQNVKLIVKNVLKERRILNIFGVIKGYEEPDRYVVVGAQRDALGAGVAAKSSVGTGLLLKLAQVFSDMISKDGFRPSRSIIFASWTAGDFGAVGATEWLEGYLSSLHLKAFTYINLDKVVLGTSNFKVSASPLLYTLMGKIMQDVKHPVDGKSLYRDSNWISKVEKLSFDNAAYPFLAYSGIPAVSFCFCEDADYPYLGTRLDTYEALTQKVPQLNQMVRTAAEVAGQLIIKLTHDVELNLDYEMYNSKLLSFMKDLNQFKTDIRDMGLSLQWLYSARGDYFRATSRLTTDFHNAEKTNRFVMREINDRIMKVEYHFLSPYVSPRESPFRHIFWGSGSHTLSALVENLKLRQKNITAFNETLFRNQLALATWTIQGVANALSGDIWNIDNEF

Substance | Kd [1] | Internalisation into TfR-expressing bEnd.3 cells [2] | Co-localisation with the anti-TfR antibody ([2]; bEnd.3 cells, co-incubation with antibody R17217)
5′-GCGCGGGCCCGCGCTAACGGAGGTTGCGTCCGT-3′ (GCGCGGGCCCGCGCTAACGGAGGTTGCGTCCGN; DNA sequence of aptamer conjugate Bi2; (33)..(33) n is t or 3′ inverted deoxythymidine (dT)) | 306 nM and 305 nM | internalised | –
5′-GCGCGGTACCGCGCTAACGGAGGTTGCGTCCGT-3′ (GCGCGGTACCGCGCTAACGGAGGTTGCGTCCGN; listed as DNA, chemistry not given here) [Bi3] | 342 ± 78.3 nM | internalised | –
Bi1: aptamer conjugate based on TfR1 and scrambled EpCAM binding loop, negative control, SEQ ID NO:8 (GCGCGTGCACGCGCTAACGGATTCCTTTTCCGN; listed as DNA, further chemistry not given here) | 1690 ± 1840 nM | not | –
TfR3: version of TfR1 with scrambled binding loop sequence, SEQ ID NO:6 (DNA GCGTGGTACCACGC; DNA, 5' {TYE665}, 3' [invdT], backbone not given here) | 366 nM | – | observed
